Reference: patent publication US20220324865A1 (Bayer Aktiengesellschaft, priority 2018, published 2022)

Target: T1, human EP3 receptor (Homo sapiens, UniProt P43115)
T1 construct: expressed in transfected cells; host or cells: CHO K1 (Chinese Hamster Ovary), stably co-transfected with Galpha16 and mitochondrial clytin
T1 sequence (P43115 1-390): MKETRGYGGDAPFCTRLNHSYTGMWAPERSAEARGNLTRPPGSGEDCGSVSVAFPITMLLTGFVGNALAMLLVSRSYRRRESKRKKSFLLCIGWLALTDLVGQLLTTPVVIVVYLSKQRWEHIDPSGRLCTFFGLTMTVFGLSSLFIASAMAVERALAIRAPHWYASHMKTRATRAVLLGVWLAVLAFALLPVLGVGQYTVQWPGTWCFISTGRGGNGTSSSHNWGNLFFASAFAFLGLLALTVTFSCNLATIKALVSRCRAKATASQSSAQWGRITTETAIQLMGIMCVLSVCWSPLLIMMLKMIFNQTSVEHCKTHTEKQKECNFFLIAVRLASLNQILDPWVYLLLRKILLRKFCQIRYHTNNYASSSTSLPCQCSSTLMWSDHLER
Assay: Cellular in vitro assay for determining EP3 receptor activity (human EP3 cell line, sulprostone-stimulated calcium luminescence)
Format: cell-based
Conditions: CHO cells expressing human EP3 and mitochondrial Clytin; antagonist mode, sulprostone at EC50; read-out: EP3 CHO mtCLY ANTAG IC50
Method in brief: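 CHO K1 cells stably expressing human EP3 with Gα16 and mitochondrial Clytin, loaded overnight with coelenterazine. Compounds added 10 min before sulprostone at its EC50; antagonism read immediately as reduced calcium-driven luminescence, quadruplicate points.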

Structure (SMILES)	IC50
COc1ccc(C2(NC(=O)c3cc4c(=O)[nH]c(-c5ccc(C)c(C)c5)cn4n3)CN(C(=O)OC(C)(C)C)C2)cc1 [Example 1-64, tert.-Butyl 3-({[6-(3,4-dimethylphenyl)-4-oxo-4,5-dihydropyrazolo[1,5-a]pyrazin-2-yl]carbonyl}-amino)-3-(4-methoxyphenyl)azetidine-1-carboxylate]	4.55 nM
Cc1cc(-c2cn3nc(C(=O)N[C@H](c4ccc(F)cc4)C(C)(C)O)c(C4CC4)c3c(=O)[nH]2)ccc1C(F)(F)F [6-134]	8.6 nM
CC(NC(=O)c1cc2c(=O)[nH]c(-c3ccc4ccccc4c3)cn2n1)c1ccn(C)n1 (stereo not shown) [Example 2-49, N-[1-(1-Methyl-1H-pyrazol-3-yl)ethyl]-6-(2-naphthyl)-4-oxo-4,5-dihydropyrazolo[1,5-a]pyrazine-2-carboxamide]	8.6 nM
CN(C)C(CNC(=O)c1cc2c(=O)[nH]c(-c3ccc4ccccc4c3)cn2n1)c1cccc(C(F)(F)F)c1 (stereo not shown) [Example 2-15, N-{2-(Dimethylamino)-2-[3-(trifluormethyl)phenyl]ethyl}-6-(2-naphthyl)-4-oxo-4,5-dihydropyrazolo[1,5-a]pyrazine-2-carboxamide]	9.55 nM
Cc1cc(-c2cn3nc(C(=O)NC4CCN(C5CC5)C4)c(C(F)(F)F)c3c(=O)[nH]2)ccc1Cl (single isomer, unassigned) [6-241]	9.5 nM
CCN(CCO)CC(NC(=O)c1nn2cc(-c3cnc4cccc(C)c4c3)[nH]c(=O)c2c1C(C)C)c1ccccc1 (stereo not shown) [Example 1-41, N-[2-[Ethyl(2-hydroxyethyl)amino]-1-phenylethyl]-3-isopropyl-6-(5-methyl-3-quinolyl)-4-oxo-5H-pyrazolo[1,5-a]pyrazine-2-carboxamide]	3.7 nM
O=C(N[C@H](CCO)c1ccc(F)cc1)c1cc2c(=O)[nH]c(-c3ccc4ccccc4c3)cn2n1 [Example 1-52, N-[(1R)-1-(4-Fluorophenyl)-3-hydroxpropyl]-6-(naphthalen-2-yl)-4-oxo-4,5-dihydropyrazolo-[1,5-a]pyrazine-2-carboxamide]	6.95 nM

More lines, now with the values ahead:

IC50	Structure (SMILES)
3.7 nM	O=C(NCc1cc(F)ccc1F)c1cc2c(=O)[nH]c(-c3ccc4ccccc4c3)cn2n1 [Example 2-53, N-(2,5-Difluorobenzyl)-6-(2-naphthyl)-4-oxo-4,5-dihydropyrazolo[1,5-a]pyrazine-2-carboxamide]
1.35 nM	COc1ccc(-c2cn3nc(C(=O)N[C@@H](c4ccc(F)cc4)C(F)(F)CO)c(C4CC4)c3c(=O)[nH]2)cc1F [6-586]
2.67 nM	Cc1ccc(-c2cn3nc(C(=O)N[C@@H](C)CCO)c(C4CC4)c3c(=O)[nH]2)cc1Cl [6-270]
1.15 nM	COCc1c(C(=O)N[C@@H](c2ccc(F)cc2)C(F)(F)CO)nn2cc(-c3ccc(Cl)c(C)c3)[nH]c(=O)c12 [6-621]
2.77 nM	Cc1cc(-c2cn3nc(C(=O)N[C@@H](c4ccc(F)cc4)C(C)(C)O)c(C(F)(F)F)c3c(=O)[nH]2)ccc1F [6-648]
3.25 nM	Cc1cc(-c2cn3nc(C(=O)N[C@H](CN4CC(F)C4)c4ccc(F)cc4)c(C(F)(F)F)c3c(=O)[nH]2)ccc1Cl [6-231]
1.35 nM	C[C@@H](NC(=O)c1cc2c(=O)[nH]c(-c3ccc4c(c3)N(C)CCO4)cn2n1)c1ccc(F)cc1 [Example 1-102, N-[(1R)-1-(4-Fluorophenyl)ethyl]-6-(4-methyl-3,4-dihydro-2H-1,4-benzoxazin-6-yl)-4-oxo-4,5-dihydropyrazolo[1,5-a]pyrazin-2-carboxamide]
2 nM	COc1ccc(CNC(=O)c2cc3c(=O)[nH]c(-c4ccc5c(c4)N(C)CCO5)cn3n2)cc1OC [Example 1-16, N-(3,4-Dimethoxybenzyl)-6-(4-methyl-3,4-dihydro-2H-1,4-benzoxazin-6-yl)-4-oxo-4,5-dihydropyrazolo[1,5-a]pyrazine-2-carboxamide]
2.95 nM	Cc1cc(-c2cn3nc(C(=O)NC4(c5ccc(F)cc5)CN(C)C4)c(C(C)C)c3c(=O)[nH]2)ccc1Cl [6-607]
